Assay results reported in patent US8580827B2 (priority 2009, dated 2013).
In brackets after ≈: the same amount, converted by molar mass. Entries after “also recorded” stand apart in the source; their conditions may differ. Where two headings read alike, the source gives them in different places.

How the values were obtained:
[1] = tested on: live vaccine strain (LVS, type B); assay: microbe, parasite or virus in culture; type: cell-based, F. tularensis
[2] = tested on: F. novicida strain U112; assay: microbe, parasite or virus in culture; type: cell-based, F. tularensis subspecies novicida
[3] = tested on: Salmonella enterica serovar Typhimurium (ATCC 14028); type: cell-based
[4] = tested on: Escherichia coli (ATCC 25922); type: cell-based
[5] = tested on: F. tularensis strain Schu S4 (type A); assay: microbe, parasite or virus in culture; type: cell-based
[6] = tested on: intracellular F. tularensis (type A, Schu S4) in TPA-treated THP-1 cells; type: cell-based
[7] = tested on: intracellular F. novicida in RAW264.7 murine macrophages; type: cell-based
[8] = tested on: intracellular F. novicida in TPA-differentiated human THP-1 macrophages; type: cell-based
[9] = tested on: RAW264.7 murine macrophage cells
[10] = Francisella tularensis, U112, 24 h

For `Nc1ccc(-n2nc(C(F)(F)F)cc2-c2ccc(-c3ccccc3)cc2)cc1` [Compound 16, 4-(5-Biphenyl-4-yl-3-trifluoromethyl-pyrazol-1-yl)-phenylamine], which MIC ([1]; Francisella tularensis, 48 h) is on record?
The MIC was no more than 4 µg/mL.

And the MIC [2, 10]?
The MIC was no more than 4 µg/mL.

`Nc1ccc(-n2nc(C(F)(F)F)cc2-c2ccc(-c3cc(Cl)c(Cl)cc3Cl)cc2)cc1` [Compound 17, 4-[5-(2′,4′,5′-Trichloro-biphenyl-4-yl)-3-trifluoromethyl-pyrazol-1-yl]-phenylamine] was tested. Which MIC [1] did it give?
Its MIC is “potent inhibitor”.

What about the MIC [2] of the same molecule?
The MIC was “no measurable inhibitory effect”.

For `NC(=O)c1ccc(-n2nc(C(F)(F)F)cc2-c2ccc(-c3ccc(Cl)cc3)cc2)cc1` [Compound 2, 4-[5-(4′-Chloro-biphenyl-4-yl)-3-trifluoromethyl-pyrazol-1-yl]-benzamide], which MIC ([1]; Francisella tularensis, 48 h) is on record?
The MIC was no more than 4 µg/mL.

And the MIC [2, 10]?
Its MIC is no more than 4 µg/mL.

Which results are given for `Cc1ccc(-c2cc(C(F)(F)F)nn2-c2ccc(S(N)(=O)=O)cc2)cc1` [celecoxib, 4-[5-(4-methylphenyl)-3-(trifluoromethyl)pyrazol-1-yl]benzenesulfonamide, reference compound]?
decrease in CFU [1]: ≧log decrease in CFU; MIC ([1]; Francisella tularensis, 48 h): 16 µg/mL (≈ 42 µM); decrease in CFU [2]: ≧log decrease in CFU; activity against S. enterica serovar Typhimurium [3]: inactive; activity against E. coli [4]: inactive; MIC ([5]; Francisella tularensis, 24 h): 16 µg/mL (≈ 42 µM)

Which MIC ([1]; Francisella tularensis, 48 h) does the source give for `NS(=O)(=O)c1ccc(-n2nc(C(F)(F)F)cc2-c2ccc(-c3ccc(Cl)cc3)cc2)cc1` [Compound 11, 4-[5-(4′-Chloro-biphenyl-4-yl)-3-trifluoromethyl-pyrazol-1-yl]-benzenesulfonamide] here?
The MIC was no more than 4 µg/mL.

And the MIC [2, 10]?
Its MIC is no more than 4 µg/mL.

How did the effect on bacteria [1] turn out when `CS(=O)(=O)c1ccc(C2=C(c3ccccc3)C(=O)OC2)cc1` [rofecoxib] was run?
The effect on bacteria was “no appreciable effect”.

What about the effect on bacteria [2] of the same molecule?
The effect on bacteria was “no appreciable effect”.

What about the effect on bacteria [3] of the same molecule?
Its effect on bacteria is “no appreciable effect”.

What about the effect on bacteria [4] of the same molecule?
Its effect on bacteria is “no appreciable effect”.

What about the effect on bacteria [5] of the same molecule?
The effect on bacteria was “no appreciable effect”.

For `Nc1ccc(-n2nc(C(F)(F)F)cc2-c2ccc(-c3ccc(Br)cc3)cc2)cc1` [Compound 20, 4-[5-(4′-Bromo-biphenyl-4-yl)-3-trifluoromethyl-pyrazol-1-yl]-phenylamine], which “inhibition of intracellular Schu S4 survival” value [6] is on record?
Its value is “significant inhibitory effect”.

What about the MIC ([1]; Francisella tularensis, 48 h) of the same molecule?
The MIC was no more than 4 µg/mL.

What about the MIC [2, 10] of the same molecule?
Its MIC is no more than 4 µg/mL.

And the “inhibition of intracellular F. novicida survival” value [7]?
Its value is “effectively inhibits; also recorded: could inhibit the survival of intracellular Francisella”.

What about the “activity against S. enterica serovar Typhimurium” value [3] of the same molecule?
Its value is “inactive”.

And the “activity against E. coli” value [4]?
The value was “inactive”.

And the “inhibition of intracellular F. novicida survival” value [8]?
The value was “effectively inhibits; also recorded: could inhibit the survival of intracellular Francisella”.

With `NS(=O)(=O)c1ccc(-n2nc(C(F)(F)F)cc2-c2ccc(-c3cc(Cl)c(Cl)cc3Cl)cc2)cc1` [Compound 12, 4-[5-(2′,4′,5′-Trichloro-biphenyl-4-yl)-3-trifluoromethyl-pyrazol-1-yl]-benzenesulfonamide] as the molecule, how does the MIC [2, 10] read?
Its MIC is no more than 4 µg/mL.

What about the cytotoxicity for macrophages [9] of the same molecule?
The cytotoxicity for macrophages was “showed cytotoxicity for macrophages”.
